In the test the target is T1, BaF3 BRAF-KIAA1549 fusion cells (Homo sapiens, UniProt P15056).
T1 construct: The BRAF-KIAA1549 fusion mutant was subcloned into pMXs-IRES-Blasticidin (RTV-016, Cell Biolabs, San Diego, CA); No tag given; Q9HCM3 (UPF0606 protein KIAA1549)
T1 sequence (P15056 whole entry, change not shown, the tested form may be a part): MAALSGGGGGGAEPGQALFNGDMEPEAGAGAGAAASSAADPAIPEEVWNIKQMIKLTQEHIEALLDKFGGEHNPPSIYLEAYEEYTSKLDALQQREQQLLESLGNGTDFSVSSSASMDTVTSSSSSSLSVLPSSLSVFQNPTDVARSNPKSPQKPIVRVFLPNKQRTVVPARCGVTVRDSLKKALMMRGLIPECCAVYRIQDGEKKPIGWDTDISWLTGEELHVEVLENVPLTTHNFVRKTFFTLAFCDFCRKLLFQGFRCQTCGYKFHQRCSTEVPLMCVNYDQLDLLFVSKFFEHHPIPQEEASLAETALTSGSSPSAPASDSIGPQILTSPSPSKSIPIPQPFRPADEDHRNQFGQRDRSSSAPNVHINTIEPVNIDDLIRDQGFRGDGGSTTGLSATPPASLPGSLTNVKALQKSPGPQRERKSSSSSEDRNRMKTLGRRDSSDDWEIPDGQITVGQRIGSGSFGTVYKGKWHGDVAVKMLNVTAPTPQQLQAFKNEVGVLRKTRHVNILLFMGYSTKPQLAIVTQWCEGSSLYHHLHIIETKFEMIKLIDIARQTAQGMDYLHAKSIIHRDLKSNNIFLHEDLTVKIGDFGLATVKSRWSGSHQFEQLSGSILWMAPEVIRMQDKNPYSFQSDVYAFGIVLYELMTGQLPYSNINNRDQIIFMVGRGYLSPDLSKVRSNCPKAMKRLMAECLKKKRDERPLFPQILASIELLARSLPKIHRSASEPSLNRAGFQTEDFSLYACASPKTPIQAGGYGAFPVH
In words: BaF3 BRAF-KIAA1549 fusion cell proliferation assay (CellTiterGlo, 96 hours). Conditions: Table A2. The class given is cell-based. In a few lines: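 BaF3 cells retrovirally transduced with BRAF-KIAA1549 fusion and blasticidin-selected were plated at 7×10^4 c/well in RPMI, 10% heat-inactivated FBS, 1% L-glutamine, and exposed to compound for 96 hours. Growth was read as ATP content by CellTiterGlo luminescence. IC50 was fitted by Levenberg-Marquardt, normalised to DMSO-treated cells.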
(ATP-based viability assays read luminescence as a measure of living cells.)
Take `CNc1cc2ncc(-c3cc(NC(=O)c4cnc5n4CC(C)CC5)ccc3C)cc2cn1` (centres unmarked) [Compound 204, 6-methyl-N-(4-methyl-3-(7-(methylamino)-1,6-naphthyridin-3-yl)phenyl)-5,6,7,8-tetrahydroimidazo[1,2-a]pyridine-3-carboxamide]: the GI50 is below 20 nM. `CNc1cc2ncc(-c3cc(NC(=O)c4cnc5n4C(C)CCC5)ccc3C)cc2cn1` (centres unmarked) [Compound 205, 5-methyl-N-(4-methyl-3-(7-(methylamino)-1,6-naphthyridin-3-yl)phenyl)-5,6,7,8-tetrahydroimidazo[1,2-a]pyridine-3-carboxamide]: the GI50 is 100 to 500 nM. As to `CNc1cc2ncc(-c3cc(NC(=O)c4cc(C(O)(O)C(F)(F)F)ccn4)cnc3C)cc2cn1` [Compound 206, N-(6-methyl-5-(7-(methylamino)-1,6-naphthyridin-3-yl)pyridin-3-yl)-4-(2,2,2-trifluoro-1,1-dihydroxyethyl)picolinamide], the GI50 was 20 to 100 nM. To `CNc1cc2ncc(-c3cc(NC(=O)c4cnc5n4CCCC5)cnc3C)cc2cn1` [Compound 209, N-(6-methyl-5-(7-(methylamino)-1,6-naphthyridin-3-yl)pyridin-3-yl)-5,6,7,8-tetrahydroimidazo[1,2-a]pyridine-3-carboxamide] belongs at least 500 nM; to `CNc1cc2ncc(-c3cc(NC(=O)c4cccc(C(O)C(F)(F)F)n4)cnc3C)cc2cn1` (centres unmarked) [Compound 210, N-(6-methyl-5-(7-(methylamino)-1,6-naphthyridin-3-yl)pyridin-3-yl)-6-(2,2,2-trifluoro-1-hydroxyethyl)picolinamide], at least 500 nM. To `CNc1cc2ncc(-c3cc(NC(=O)c4nccc5c4OCCC5O)cnc3C)cc2cn1` (centres unmarked) [Compound 211, 4-hydroxy-N-(6-methyl-5-(7-(methylamino)-1,6-naphthyridin-3-yl)pyridin-3-yl)-3,4-dihydro-2H-pyrano[2,3-c]pyridine-8-carboxamide] belongs at least 500 nM; to `CNc1cc2ncc(-c3cc(NC(=O)c4cccc5c4CCC5=O)cnc3C)cc2cn1` [Compound 212, N-(6-methyl-5-(7-(methylamino)-1,6-naphthyridin-3-yl)pyridin-3-yl)-1-oxo-2,3-dihydro-1H-indene-4-carboxamide], at least 500 nM. To `CNc1cc2ncc(-c3cc(C(=O)Nc4cc(C(C)(C)C#N)ccn4)cnn3)cc2cn1` [Compound 213, N-(4-(2-cyanopropan-2-yl)pyridin-2-yl)-6-(7-(methylamino)-1,6-naphthyridin-3-yl)pyridazine-4-carboxamide] belongs at least 500 nM. For the compound `CNc1cc2ncc(-c3cc(NC(=O)c4cnc5n4CCCC5C)ccc3C)cc2cn1` (centres unmarked) [Compound 214, 8-methyl-N-(4-methyl-3-(7-(methylamino)-1,6-naphthyridin-3-yl)phenyl)-5,6,7,8-tetrahydroimidazo[1,2-a]pyridine-3-carboxamide], the GI50 was 20 to 100 nM. For the compound `CNc1cc2ncc(-c3cc(NC(=O)c4cccc5c4NC(=O)C5(C)C)ccc3C)cc2cn1` [Compound 215, 3,3-dimethyl-N-(4-methyl-3-(7-(methylamino)-1,6-naphthyridin-3-yl)phenyl)-2-oxoindoline-7-carboxamide], the GI50 lay in the range of 20 to 100 nM.

`CNc1cc2ncc(-c3cc(NC(=O)c4cnc5n4CCCC5)ccc3C)cc2cn1` [Compound 216, N-(4-methyl-3-(7-(methylamino)-1,6-naphthyridin-3-yl)phenyl)-5,6,7,8-tetrahydroimidazo[1,2-a]pyridine-3-carboxamide] came in with a GI50 of 100 to 500 nM.

`CNc1cc2ncc(-c3cc(NC(=O)c4ccnc(C(C)(C)C#N)c4)c(F)cc3C)cc2cn1` [Compound 217, 2-(2-cyanopropan-2-yl)-N-(2-fluoro-4-methyl-5-(7-(methylamino)-1,6-naphthyridin-3-yl)phenyl)isonicotinamide] gave a GI50 of 20 to 100 nM. The figure for `CNc1cc2ncc(-c3cc(NC(=O)c4cc(C(N(C)C)C(F)(F)F)ccn4)ccc3C)cc2cn1` (centres unmarked) [Compound 218, 4-(1-(dimethylamino)-2,2,2-trifluoroethyl)-N-(4-methyl-3-(7-(methylamino)-1,6-naphthyridin-3-yl)phenyl)picolinamide] is 20 to 100 nM; for `CNc1cc2ncc(-c3cc(NC(=O)c4cccc5c4CCC5O)cnc3C)cc2cn1` (centres unmarked) [Compound 219, 1-hydroxy-N-(6-methyl-5-(7-(methylamino)-1,6-naphthyridin-3-yl)pyridin-3-yl)-2,3-dihydro-1H-indene-4-carboxamide] it is at least 500 nM. Compound `CNc1cc2ncc(-c3cc(NC(=O)c4cnc5n4CC(C(F)(F)F)CC5)ccc3C)cc2cn1` (centres unmarked) [Compound 220, N-(4-methyl-3-(7-(methylamino)-1,6-naphthyridin-3-yl)phenyl)-6-(trifluoromethyl)-5,6,7,8-tetrahydroimidazo[1,2-a]pyridine-3-carboxamide] had a GI50 of 20 to 100 nM. To `CNc1cc2ncc(-c3cc(NC(=O)c4ccnc(C5(F)CC5)c4)c(F)cc3C)cc2cn1` [Compound 221, N-(2-fluoro-4-methyl-5-(7-(methylamino)-1,6-naphthyridin-3-yl)phenyl)-2-(1-fluorocyclopropyl)isonicotinamide] belongs 20 to 100 nM; to `CNc1cc2ncc(-c3cc(NC(=O)c4ccnc(C(C)(C)F)c4)c(F)cc3C)cc2cn1` [Compound 222, N-(2-fluoro-4-methyl-5-(7-(methylamino)-1,6-naphthyridin-3-yl)phenyl)-2-(2-fluoropropan-2-yl)isonicotinamide], 20 to 100 nM. To `CNc1cc2ncc(-c3cc(NC(=O)c4cccc(C(C)(C)C#N)c4)c(F)cc3C)cc2cn1` [Compound 223, 3-(2-cyanopropan-2-yl)-N-(2-fluoro-4-methyl-5-(7-(methylamino)-1,6-naphthyridin-3-yl)phenyl)benzamide] belongs 20 to 100 nM; to `CNc1cc2ncc(-c3cc(NC(=O)c4cc(C(F)(F)F)ccn4)c(F)cc3C)cc2cn1` [Compound 224, N-(2-fluoro-4-methyl-5-(7-(methylamino)-1,6-naphthyridin-3-yl)phenyl)-4-(trifluoromethyl)picolinamide], 100 to 500 nM; to `CNc1cc2ncc(-c3cc(NC(=O)c4cnc5n4CC(C)CC5)cnc3C)cc2cn1` (centres unmarked) [Compound 225, 6-methyl-N-(6-methyl-5-(7-(methylamino)-1,6-naphthyridin-3-yl)pyridin-3-yl)-5,6,7,8-tetrahydroimidazo[1,2-a]pyridine-3-carboxamide], 20 to 100 nM. The figure for `CNc1cc2ncc(-c3cc(NC(=O)c4ccccc4NC(C)C(F)F)cnc3C)cc2cn1` (centres unmarked) [Compound 226, 2-((1,1-difluoropropan-2-yl)amino)-N-(6-methyl-5-(7-(methylamino)-1,6-naphthyridin-3-yl)pyridin-3-yl)benzamide] is 20 to 100 nM; for `CCC(C)c1ccnc(C(=O)Nc2cnc(C)c(-c3cnc4cc(NC)ncc4c3)c2)c1` (centres unmarked) [Compound 227, 4-(sec-butyl)-N-(6-methyl-5-(7-(methylamino)-1,6-naphthyridin-3-yl)pyridin-3-yl)picolinamide] it is 20 to 100 nM. As for `CNc1cc2ncc(-c3cc(NC(=O)c4noc5c4CCCC5)ccc3C)cc2cn1` [Compound 228, N-(4-methyl-3-(7-(methylamino)-1,6-naphthyridin-3-yl)phenyl)-4,5,6,7-tetrahydrobenzo[d]isoxazole-3-carboxamide], the GI50 fell in the range of 100 to 500 nM.

Usually GI50 stands for the concentration at which growth is held to half of that of the control. A high value points to lower sensitivity of the cells.

Values taken from US20250017914A1, “6-AZA-QUINOLINE DERIVATIVES AND RELATED USES” (Black Diamond Therapeutics, Inc., priority 2021, published 2025).
